# Measured values taken from US10350192B2, “Lactate dehydrogenase inhibitor and antiepileptic drug containing the same” (NATIONAL UNIVERSITY CORPORATION OKAYAMA UNIVERSITY, priority 2015, dated 2019).
# Several values for one entry are separate records, joined by “and”; a condition that tells them apart may be missing. Equal entries are not always repeated. Entries after “also recorded” stand apart in the source; their conditions may differ.
# Legend:
# [1] = target: T1, human LDH-5 (Homo sapiens, UniProt P00338); experiment: Lactate dehydrogenase activity by NADH light absorption at 340 nm, LDH-5; assay type: biochemical; conditions: 500 μM
# Procedure: (§1) Evaluation of inhibition of lactate dehydrogenase by isosafrole (FIG. 4): The activity of lactate dehydrogenase was measured by a versatile method based on light absorption of NADH. Lactate dehydrogenase is an enzyme that interconverts pyruvate and lactate. At that time, NADH and NAD are also interconverted. For lactate dehydrogenase activity from lactate to pyruvate, lactate (20 mM), NAD (200 μM) and lactate dehydrogenase were added and the reaction rate of NADH produced was measured. On the other hand, for the lactate dehydrogenase activity from pyruvate to lactate, pyruvate (1.0 mM), NADH (200 μM) and lactate dehydrogenase were added and the reaction rate of decreasing NADH was measured. Both reactions were carried out at 37° C. in 100 mM sodium phosphate buffer (pH7.3). The light absorption of NADH at 340 nm was measured using an absorptiometer at 30 second intervals for 3.5 minutes to determine the reaction rate. Two kinds of human lactate dehydrogenase (human LDH-1 and LDH-5) were examined as lactate dehydrogenase. The amount of lactate dehydrogenase was set so that the maximum rates of the two lactate dehydrogenases were approximately the same: 0.0033 units/ml of LDH-1 and 0.01 units/ml of LDH-5 for the activity from lactate to pyruvate; and 0.0017 units/ml of LDH-1 and 0.0033 units/ml of LDH-5 for the activity from pyruvate to lactate. […]
# [2] = target: human LDH-1 (Homo sapiens, UniProt P07195); experiment: Lactate dehydrogenase activity by NADH light absorption at 340 nm, LDH-1; assay type: biochemical; conditions: 500 μM
# Chain of human LDH-1 (P07195 2-334 limits assumed): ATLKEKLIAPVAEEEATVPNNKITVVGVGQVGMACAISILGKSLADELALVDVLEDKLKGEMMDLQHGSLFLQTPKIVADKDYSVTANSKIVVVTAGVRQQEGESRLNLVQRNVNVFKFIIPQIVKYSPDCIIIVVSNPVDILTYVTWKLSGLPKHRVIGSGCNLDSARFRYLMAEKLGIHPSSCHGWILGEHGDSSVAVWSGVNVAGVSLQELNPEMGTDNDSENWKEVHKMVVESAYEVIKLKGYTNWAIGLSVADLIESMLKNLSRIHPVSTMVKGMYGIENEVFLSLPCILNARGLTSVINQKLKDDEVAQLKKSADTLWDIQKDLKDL
# Procedure: as §1
# [3] = tested on: hippocampal sclerosis model mouse; experiment: Epileptic spikes in hippocampal sclerosis model mouse (intrahippocampal kainate); assay type: in vivo
# Procedure: Preparation and measurement of hippocampal sclerosis model mouse (FIGS. 1 to 3): The hippocampal sclerosis model mouse was prepared according to a previous literature (Non-Patent Document 15). Six to seven-week-old ICR mice were used for the experiment. Mice were fully anesthetized with a mixture of ketamine (100 mg/kg) and xylazine (20 mg/kg) and then set on a brain stereotaxic apparatus. Using a micro glass electrode and a Hamilton syringe from above the hippocampus of the head, a trace amount of kainate (0.8 nmol, 40 nL) for inducing epilepsy was injected into the dorsal hippocampus (1.6 mm behind the bregma, 1.6 mm laterally from the centerline, 1.4 mm deep from the brain surface), and then a metal electrode (a diameter of 200 μm) for epileptic electroencephalography was embedded near the kainic acid injection site. In addition, a small plastic U-shaped frame for head fixation required for in vivo electrical measurements was also attached to the head. After 2 weeks or more from surgery, epileptic spikes in the hippocampus were measured. The head was fixed via the U-shaped frame. Epileptic spikes were amplified, then measured via a band-pass filter (0.5-30 Hz) and taken into a computer using an AD converter. After measurement of the baseline electroencephalogram for 30 minutes, stiripentol (300 mg/kg), isosafrole (100-300 mg/kg), sodium oxamate (250-500 mg/kg), or physiological saline was intraperitoneally administered, and then further recording was conducted for 1 hour. Sodium oxamate was dissolved in water, and stiripentol and isosafrole were dissolved in sodium carboxymethyl cellulose (1%) and administered intraperitoneally. In data analysis, high-amplitude epilepsy spikes with an amplitude of 0.5 mV or more were counted 30 minutes before and after administration, respectively, and the efficacy was evaluated by normalization using the number of epileptic spikes before administration. In the observation of morphological changes due to hippocampal sclerosis, the brain was sliced to 300 μm thickness, fixed with 10% formalin, and stained with 0.05% cresylviolet.
# Medial temporal lobe epilepsy with hippocampal sclerosis is a typical refractory epilepsy in adults (epilepsy for which existing drugs are not effective). First, according to a previous literature (Non-Patent Document 15), a trace amount of kainic acid was injected to a hippocampus to prepare hippocampal sclerosis model mouse (FIG. 1A). […] This is the same finding as the already reported hippocampal sclerosis model mouse (Non-Patent Document 15), which is similar to the symptom observed in human hippocampal sclerosis (Non-Patent Document 16). When recording on the hippocampus, spontaneous high-amplitude epileptic spikes were observed (FIG. 1C; arrowhead). […]
# [4] = target: T1, human LDH-5; experiment: Lactate dehydrogenase inhibition rate, diaphorase/INT formazan coloring reaction (492 nm); assay type: biochemical
# Procedure: Identification of a lactate dehydrogenase inhibitor having isosafrole as a scaffold (FIGS. 5 to 7): Since NADH absorbs light in the ultraviolet region (340 nm) and many compounds absorb the wavelength, NADH is not suitable for screening using a compound library. Therefore, in order to evaluate the lactate dehydrogenase activity from pyruvate to lactate, pyruvate (100 μM), NADH (100 μM) and lactate dehydrogenase (0.015 U/mL of human LDH-5) were firstly added, then allowed to react in a 100 mM sodium phosphate buffer (pH7.3) at 37° C. for 60 minutes (LDH enzyme reaction, 200 μL/well). At this stage, the background absorbance at 492 nm was first measured with a plate reader (absorbance before coloring reaction). Next, in order to measure the amount of NADH remaining in the LDH enzyme reaction, 100 μL/well of a coloring solution in which diaphorase (25 U/mL) and INT (5 mM) were dissolved was added, and then allowed to react in a 100 mM sodium phosphate buffer (pH7.3) at 37° C. for 10 minutes (coloring reaction). Since INT changes to INT formazan by diaphorase in the presence of NADH and develops color, the absorbance at 492 nm of INT formazan was measured with a plate reader (absorbance after coloring reaction).
# Calculation of the inhibition rate (% Inhibition) is as follows. ΔA when the above reaction was carried out under the condition that lactate dehydrogenase was present was taken as “0% control value”, and ΔA when the above reaction was carried out under the condition that lactate dehydrogenase was absent was taken as “100% control value”. […] Then, the same reaction as the 0% control was carried out in the presence of a compound having isosafrole as a scaffold, and resultant ΔA was defined as “ΔA in the presence of the compound”. […] Specifically, inhibition rate is calculated as follows: Inhibition rate (%)=100×(ΔA in the presence of the compound−0% control value)/(100% control value−0% control value). Compounds showing inhibition rate of 100% (±25%) were described in FIGS. 6 and 7 as lactate dehydrogenase inhibitor. […]
# [5] = tested on: pentylenetetrazole-induced acute epileptic seizures; conditions: rats, 300 mg/kg intraperitoneal; cited from earlier work
# [6] = rats, 300 mg/kg intraperitoneal; cited from earlier work
# [7] = 300 mg/kg intraperitoneal, high-amplitude spikes 30 min after vs before administration
SMILES,effect on lactate dehydrogenase activity from lactate to pyruvate ([1]; Lactate→Pyruvate),effect on lactate dehydrogenase activity from pyruvate to lactate ([1]; Pyruvate→Lactate),effect on lactate dehydrogenase activity from lactate to pyruvate ([2]; Lactate→Pyruvate),effect on lactate dehydrogenase activity from pyruvate to lactate ([2]; Pyruvate→Lactate),"antiepileptic effect on epileptic spikes [3, 7]",antiepileptic effect on epileptic spikes ([3]; 200-300 mg/kg intraperitoneal),inhibition of lactate dehydrogenase (LDH-5) ([4]; 250 μM),inhibition of lactate dehydrogenase (LDH-5) ([4]; 500 μM),"inhibition of lactate dehydrogenase (LDH-5) ([4]; 500 μM, listed as Isosafrole)",suppression of pentylenetetrazole-induced acute epileptic seizures [5],plasma concentration [6],antiepileptic effect on epileptic spikes ([3]; 500 mg/kg intraperitoneal)
"C/C=C/c1ccc2c(c1)OCO2 [isosafrole, 5-(1-propenyl)-1,3-benzodioxole]",inhibitory effect,inhibitory effect was strong,inhibitory effect,inhibitory effect was strong,significantly suppressed; also recorded: remarkable inhibitory effect on epilepsy,remarkable antiepileptic effect,not,inhibited,inhibits,–,–,–
"CC(C)(C)C(O)/C=C/c1ccc2c(c1)OCO2 (stereo not shown) [stiripentol, 4-dimethyl-1-[(3,4-methylenedioxy)-phenyl]-1-penten-3-ol]",–,–,–,–,scarcely inhibited; also recorded: little antiepileptic effect; also recorded: almost no inhibitory effect,–,–,–,–,suppressed,20-100 μg/ml and 85-427 μM,–
NC(=O)C(=O)[O-].[Na+] [sodium oxamate],–,–,–,–,–,–,–,–,–,–,–,weak anti-epileptic effect
